{"source": "patent EP0429333B1", "about": "“Process for producing oxazopyrroloquinolines, novel oxazopyrroloquinolines, and use of oxazopyrroloquinolines” (priority 1989, dated 1991)", "key": {"[1]": {"target": "aldose reductase of kidney (Canis lupus familiaris, UniProt A0A8I3P2L6)", "experiment": "Inhibitory effect on aldose reductase of kidney", "assay_type": "biochemical, dog", "settings": "read-out: Degree of inhibition for aldose reductase (%)", "outline": "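Aldose reductase was purified from dog kidney medulla. Activity was measured as NADPH consumption (A340 decrease) with DL-glyceraldehyde substrate and 3mM NADPH stock, in 0.1M phosphate buffer pH 6.2 at 25°C. One unit consumes 1 µmole NADPH/min.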"}, "peritoneal macrophage": {"system": "peritoneal macrophage", "experiment": "Test on macrophage-chemotaxis after intraperitoneal administration", "assay_type": "in vivo, C3H/He mice", "settings": "for (2) Chemotaxis factor was present: 50 % zymosan treated serum, no administration 68; for (2) - (1) Chemotaxied macrophage: no administration 58; for Relative activity of group (%): no administration = 100; for (1) Chemotaxis factor was not present: total number of chemotaxied macrophages at 3 points, no administration 10", "procedure": "Thirtytwo C3H/He mice (male, 7 weeks old, average body weight 20 g, supplied by Japan Charles River Co.) were divided into 4 groups (A - D) of 8 mice each.\nA solution of OPQ in physiological saline of pH 7.0 was intraperitoneally administered to each mouse 7 times, namely, on the 1st day, 2nd day, 3rd day, 4th day, 5th day, 6th day and 7th day. Dosage for one administration per one mouse was as follows: That is, 0.2 ml of the solution containing 0.2 mg/ml of OPQ for group B, 0.2 ml of the solution containing 0.5 mg/ml of OPQ for group C, 0.2 ml of the solution containing 1.0 mg/ml of OPQ for group D and 0.2 ml of physiological saline for group A.\nOn the 8th day from starting of the experiment, the mice were anesthetized with ether and blood was drawn from carotid artery and 5 ml of cold Hanks solution was intraperitoneally injected and exudate cells for the abdominal cavity were collected. Exudate cells for the abdominal cavity of respective groups were gathered, washed three times with cold Hanks solution and suspended in RPMI medium at 5 x 10^5 cells/ml and macrophage-chemotaxis was measured. 50 % zymosan treated serum was used as chemotaxis factor and examination was conducted at three points for each sample. Number of chemotaxied macrophage was measured on microscope and 13 visual fields was examined for one point and the results are shown in Table 2. The value in the table is a total number of chemotaxied macrophages at 3 points for each sample. Preparation of Hanks solution and RPMI medium will be explained below.\nTest on macrophage-chemotaxis was conducted in the same manner as in Example 36 except that hydroxymethyl OPQ was intraperitoneally administered to each mouce 3 times of the 1st day, the 2nd day and the 3rd day in the following dosage for one administration per one mouse: 0.2 ml of hydroxymethyl OPQ solution containing 0.5 mg/ml of hydroxymethyl OPQ for group B, 0.2 ml of the solution containing 1.0 mg/ml of hydroxymethyl OPQ for group C, and 0.2 ml of the solution containing 1.5 mg/ml of hydroxymethyl OPQ for group D and exudate cells for the abdominal cavity were collected on the 4th day from starting of experiment.\nIn Examples 36 - 40, macrophage activity was examined according to chemotaxis of peritoneal macrophage (literature 1) and activity of T cell and that of B cell were examined according to blast transformation reaction using concanavalin A and lipopolysaccharide, (LPS) as mitogen (literature 2). Literature 1: \"Function of Macrophage and Method of Measurement of Function\", pages 61-65 1985), edited by Educational Committee of Japan Bacteriological Society and published from Saikon Shuppan Co.) Literature 2: \"New Method of Searching of Function of Lymphocytes\", pages 350-355 (1987) edited by Junichi Yada and Michio Fujiwara and published from Chugai Igaku Co."}, "kidney": {"system": "kidney", "experiment": "Toxicity to kidney determined by blood examination", "assay_type": "in vivo, mice", "settings": "serum", "outline": "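One day after dosing, mice fasted 18 h with water only, then blood taken. Serum glucose, urea nitrogen and creatinine measured by dry-chemistry slides; values are means of eight mice.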"}, "[2]": {"settings": "2 mg/kg mouse x 7 days intraperitoneally"}, "[3]": {"settings": "5 mg/kg mouse x 7 days intraperitoneally"}, "[4]": {"settings": "10 mg/kg mouse x 7 days intraperitoneally"}}}
{"compound": "O=C(O)c1cc(C(=O)O)c2c(n1)c1ncoc1c1cc(C(=O)O)[nH]c12", "note": "[OPQ, oxazopyrroloquinoline]", "values": [{"measurement": "inhibition at 0.1 µM", "setting": "[1]; concentration 1x10^-7 M", "result": 51.9, "unit": "%"}, {"measurement": "inhibition at 0.2 µM", "setting": "[1]; concentration 2x10^-7 M", "result": 62.1, "unit": "%"}, {"measurement": "inhibition at 0.05 µM", "setting": "[1]; concentration 5x10^-8 M", "result": 39.3, "unit": "%"}, {"measurement": "(2) Chemotaxis factor was present", "setting": "peritoneal macrophage; [2]", "result": 107}, {"measurement": "(2) - (1) Chemotaxied macrophage", "setting": "peritoneal macrophage; [2]", "result": 96}, {"measurement": "Relative activity of group (%)", "setting": "peritoneal macrophage; [2]", "result": 166, "unit": "%"}, {"measurement": "(1) Chemotaxis factor was not present", "setting": "peritoneal macrophage; [2]", "result": 11}, {"measurement": "(2) Chemotaxis factor was present", "setting": "peritoneal macrophage; [3]", "result": 96}, {"measurement": "(2) - (1) Chemotaxied macrophage", "setting": "peritoneal macrophage; [3]", "result": 87}, {"measurement": "Relative activity of group (%)", "setting": "peritoneal macrophage; [3]", "result": 150, "unit": "%"}, {"measurement": "(1) Chemotaxis factor was not present", "setting": "peritoneal macrophage; [3]", "result": 9}, {"measurement": "(2) Chemotaxis factor was present", "setting": "peritoneal macrophage; [4]", "result": 180}, {"measurement": "(2) - (1) Chemotaxied macrophage", "setting": "peritoneal macrophage; [4]", "result": 173}, {"measurement": "Relative activity of group (%)", "setting": "peritoneal macrophage; [4]", "result": 298, "unit": "%"}, {"measurement": "(1) Chemotaxis factor was not present", "setting": "peritoneal macrophage; [4]", "result": 7}, {"measurement": "Creatinine", "setting": "kidney; 40 mg/kg mouse intraperitoneally, Table 2, no administration 0.8", "result": 0.7, "unit": "mg/dL"}, {"measurement": "Urea nitrogen", "setting": "kidney; 40 mg/kg mouse intraperitoneally, Table 2, no administration 24", "result": 25, "unit": "mg/dL"}, {"measurement": "Glucose", "setting": "kidney; 40 mg/kg mouse intraperitoneally, Table 2, no administration 78", "result": 90, "unit": "mg/dL"}, {"measurement": "Creatinine", "setting": "kidney; 80 mg/kg mouse intraperitoneally, Table 2, no administration 0.8", "result": 0.8, "unit": "mg/dL"}, {"measurement": "Urea nitrogen", "setting": "kidney; 80 mg/kg mouse intraperitoneally, Table 2, no administration 24", "result": 23, "unit": "mg/dL"}, {"measurement": "Glucose", "setting": "kidney; 80 mg/kg mouse intraperitoneally, Table 2, no administration 78", "result": 86, "unit": "mg/dL"}, {"measurement": "Creatinine", "setting": "kidney; 150 mg/kg mouse intraperitoneally, Table 3, no administration 0.7", "result": 0.8, "unit": "mg/dL"}, {"measurement": "Urea nitrogen", "setting": "kidney; 150 mg/kg mouse intraperitoneally, Table 3, no administration 28", "result": 32, "unit": "mg/dL"}, {"measurement": "Glucose", "setting": "kidney; 150 mg/kg mouse intraperitoneally, Table 3, no administration 105", "result": 106, "unit": "mg/dL"}, {"measurement": "Creatinine", "setting": "kidney; 160 mg/kg mouse intraperitoneally, Table 2, no administration 0.8", "result": 0.7, "unit": "mg/dL"}, {"measurement": "Urea nitrogen", "setting": "kidney; 160 mg/kg mouse intraperitoneally, Table 2, no administration 24", "result": 27, "unit": "mg/dL"}, {"measurement": "Glucose", "setting": "kidney; 160 mg/kg mouse intraperitoneally, Table 2, no administration 78", "result": 90, "unit": "mg/dL"}, {"measurement": "Creatinine", "setting": "kidney; 200 mg/kg mouse intraperitoneally, Table 2, no administration 0.8", "result": 0.8, "unit": "mg/dL"}, {"measurement": "Urea nitrogen", "setting": "kidney; 200 mg/kg mouse intraperitoneally, Table 2, no administration 24", "result": 28, "unit": "mg/dL"}, {"measurement": "Glucose", "setting": "kidney; 200 mg/kg mouse intraperitoneally, Table 2, no administration 78", "result": 85, "unit": "mg/dL"}, {"measurement": "Creatinine", "setting": "kidney; 300 mg/kg mouse intraperitoneally, Table 3, no administration 0.7", "result": 0.8, "unit": "mg/dL"}, {"measurement": "Urea nitrogen", "setting": "kidney; 300 mg/kg mouse intraperitoneally, Table 3, no administration 28", "result": 29, "unit": "mg/dL"}, {"measurement": "Glucose", "setting": "kidney; 300 mg/kg mouse intraperitoneally, Table 3, no administration 105", "result": 80, "unit": "mg/dL"}, {"measurement": "Creatinine", "setting": "kidney; 400 mg/kg mouse intraperitoneally, Table 3, no administration 0.7", "result": 0.8, "unit": "mg/dL"}, {"measurement": "Urea nitrogen", "setting": "kidney; 400 mg/kg mouse intraperitoneally, Table 3, no administration 28", "result": 30, "unit": "mg/dL"}, {"measurement": "Glucose", "setting": "kidney; 400 mg/kg mouse intraperitoneally, Table 3, no administration 105", "result": 94, "unit": "mg/dL"}, {"measurement": "Creatinine", "setting": "kidney; 600 mg/kg mouse intraperitoneally, Table 3, no administration 0.7", "result": 0.8, "unit": "mg/dL"}, {"measurement": "Urea nitrogen", "setting": "kidney; 600 mg/kg mouse intraperitoneally, Table 3, no administration 28", "result": 34, "unit": "mg/dL"}, {"measurement": "Glucose", "setting": "kidney; 600 mg/kg mouse intraperitoneally, Table 3, no administration 105", "result": 74, "unit": "mg/dL"}]}
